Laboratory results from ChEMBL document CHEMBL1201862, “PubChem BioAssay data set” (2004).
Active and inactive are the calls of the source.

Assays:
[1] = inhibitors of intracellular T. cruzi replication, confirmation, NIH3T3 host cells, beta-gal luminescence (AID 2044); type: functional, cell-based;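 note: intracellular parasites grown in NIH/3T3 mouse fibroblasts as host cells; luminescent beta-galactosidase reporter signal from transgenic T. cruzi replicating inside host cells; inhibitors lower the luminescence signal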
[2] = cytotoxicity toward NIH3T3 fibroblasts, dose response, counter-screen, cell-based, ATP luminescence, mouse fibroblasts (AID 2010); type: functional;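 note: cells exposed to compound for about 90 hours before reading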
[3] = molecular target: Cytochrome P450 2C19 (Homo sapiens, UniProt P33261); test: Cytochrome panel assay with activity outcomes. Panel member name: p450-cyp2c19 Compounds with AC50 equal or less than 10 uM are considered active; type: functional
Cytochrome P450 2C19, sequence (P33261 whole entry): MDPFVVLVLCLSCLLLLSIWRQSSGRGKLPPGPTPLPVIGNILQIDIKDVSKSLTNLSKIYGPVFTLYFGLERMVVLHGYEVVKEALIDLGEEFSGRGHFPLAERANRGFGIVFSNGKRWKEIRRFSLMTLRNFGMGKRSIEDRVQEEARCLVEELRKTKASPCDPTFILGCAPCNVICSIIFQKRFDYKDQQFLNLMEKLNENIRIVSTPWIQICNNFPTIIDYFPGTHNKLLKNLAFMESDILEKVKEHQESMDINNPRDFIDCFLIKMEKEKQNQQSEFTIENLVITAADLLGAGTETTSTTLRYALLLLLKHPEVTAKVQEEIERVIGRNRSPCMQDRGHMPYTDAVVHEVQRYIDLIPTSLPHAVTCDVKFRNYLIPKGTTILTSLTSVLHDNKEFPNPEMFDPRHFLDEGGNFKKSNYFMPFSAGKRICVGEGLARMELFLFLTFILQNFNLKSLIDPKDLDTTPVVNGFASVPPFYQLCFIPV

[4] = Luminescence Cell-Based Dose Response HTS to Identify Activators of Luciferase Translation or Activity in H4 […] Cells. [Related pubchem assays: 1829 (Project Summary), 1814 (Primary HTS)]; type: functional
[5] = molecular target: Cytochrome P450 3A4 (Homo sapiens, UniProt P08684);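 note: CYP3A4 tested as one member of a cytochrome P450 panel screen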
Cytochrome P450 3A4, sequence (P08684 whole entry): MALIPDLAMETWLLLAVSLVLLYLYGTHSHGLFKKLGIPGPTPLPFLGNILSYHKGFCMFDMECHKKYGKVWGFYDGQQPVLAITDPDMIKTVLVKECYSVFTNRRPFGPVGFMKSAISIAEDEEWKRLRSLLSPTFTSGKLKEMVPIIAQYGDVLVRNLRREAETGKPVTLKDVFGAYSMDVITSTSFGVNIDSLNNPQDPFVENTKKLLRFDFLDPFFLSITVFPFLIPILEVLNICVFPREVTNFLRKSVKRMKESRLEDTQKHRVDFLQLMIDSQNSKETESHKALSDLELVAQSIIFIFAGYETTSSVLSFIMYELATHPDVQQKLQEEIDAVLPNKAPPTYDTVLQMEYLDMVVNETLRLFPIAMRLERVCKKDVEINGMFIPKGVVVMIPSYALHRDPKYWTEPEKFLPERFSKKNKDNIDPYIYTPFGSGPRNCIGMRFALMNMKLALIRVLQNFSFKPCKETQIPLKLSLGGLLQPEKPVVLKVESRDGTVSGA

[6] = test system: H4; test: Luminescence Cell-Based Dose Response HTS to Identify Activators of 5'UTR Stem-Loop Driven Prion Protein mRNA Translation in H4 Neuroglioblastoma Cells. [Related pubchem assays: 1829 (Project Summary), 1814 (Primary HTS)]; type: functional; conditions: Homo sapiens

Structure (SMILES) | EC50 [1] | EC50 [2] | also measured
COC(=O)Cc1c[nH]c2cccc(OCC(O)CN(Cc3ccc([N+](=O)[O-])cc3)C(C)(C)C)c12 (stereo not given) | 2.83 µM (active) | > 60 µM (not active) | 
COCCn1c(=O)c(-c2cccs2)nc2cnc(Oc3ccc(OC)cc3)nc21 |  |  | AC50 ([3]; read-out: AC50): 15.8 µM (inconclusive)
O=S(=O)(Cc1cc(Sc2ccc(Cl)cc2)nc(-c2ccccc2)n1)c1ccccc1 | 2.93 µM (active) | > 60 µM (not active) | 
COC(=O)C1CCN(CC(=O)Nc2cc(Cl)ccc2OC)CC1 | 4.18 µM (active) | > 30 µM (not active) | 
Cc1ccc(C(=N)NOC(=O)CSc2ccccc2)cc1 |  |  | EC50 [4]: 0.514 µM (active)
O=c1c(-c2ccc(F)cc2)nc2cnc(N3CCNCC3)nc2n1C1CC1 |  |  | AC50 ([3]; read-out: AC50): 39.8 µM (inconclusive)
CCc1ccc(Oc2nc([N+](=O)[O-])nn2C)cc1 | 0.438 µM (active) | > 30 µM (not active) | 
C[C@H]1CC[C@@]2(NC1)O[C@@H]1C[C@H]3[C@@H]4CC[C@@H]5C[C@@H](O)CC[C@@]5(C)[C@@H]4CC[C@]3(C)[C@@H]1[C@@H]2C |  |  | AC50 [3]: inconclusive
CC(=O)Nc1ccc(S(=O)(=O)N2CCC(N(C)CCC(C)C)CC2)cc1 |  |  | AC50 ([3]; read-out: AC50): 25.1 µM (inconclusive)
OC(COCCC12CC3CC(CC(C3)C1)C2)CN1CCCCC1 (stereo not given) | 0.228 µM (active) | > 60 µM (not active) | 
CCOC(=O)c1c2c(n3ccccc13)C(=O)c1ccccc1C2=O |  |  | AC50 [5]: 3.16 µM (inconclusive)
CN(Cc1ccccc1)C(=O)C1CCCN(Cc2cccc(Cl)c2)C1 (stereo not given) | 0.11 µM (active) | > 60 µM (not active) | 
O=c1c(-c2ccc(Cl)cc2)nc2cnc(N3CCNCC3)nc2n1Cc1cccs1 |  |  | AC50 ([3]; read-out: AC50): 25.1 µM (inconclusive)
c1ccc(COc2ccc(-c3csnn3)cc2)cc1 |  |  | EC50 [4]: 0.11 µM (active); EC50 [6]: 1.64 µM (active)
CC(CCc1ccccc1)N1CCN(Cc2ccccc2)CC1 (stereo not given) | 0.101 µM (active) | 10.2 µM (active) | 
CCN1CCN(c2ccc(S(=O)(=O)N3CCOCC3)cc2NC(=O)c2ccc(Cl)s2)CC1 | 0.588 µM (active) | > 30 µM (not active) | 

Structure (SMILES) | EC50 [1] | EC50 [2] | also measured
Cc1ccc(C(=O)N(C)c2ccc(OCC(=O)N3c4ccc(C)cc4C4CN(C)CCC43)cc2)cc1 (stereo not given) | 0.527 µM (active) | > 60 µM (not active) | 
Cc1ccc(CN(C)CCc2ccccn2)cc1 | 0.309 µM (active) | > 60 µM (not active) | 
c1ccc(COc2ccccc2CNCc2cccnc2)cc1 | 8.11 µM (active) | > 60 µM (not active) | 
COc1cc([N+](=O)[O-])c(N2CCOCC2)c([N+](=O)[O-])c1OC | 7.53 µM (active) | > 60 µM (not active) | 
COCCNc1nc(-c2c(C)noc2C)nc2ccccc12 |  |  | AC50 [5]: 15.8 µM (inconclusive)
Cc1ccc(-c2onc3ccc(C4OCCO4)cc23)cc1 |  |  | EC50 [4]: 28.4 µM (active); EC50 [6]: 25 µM (active)
O=C(CCc1nnc(CCCCc2ccccc2)o1)NCCc1cccnc1 | 2.27 µM (active) | > 60 µM (not active) | 
COc1ccc(-n2c(=O)c(C)nc3cnc(N(C)C)nc32)cc1 |  |  | AC50 [5]: 20 µM (inconclusive)
Cc1cc2nc(CCN(Cc3cccnc3)C(S)=Nc3ccc(F)cc3)[nH]c2cc1C | 0.844 µM (active) | > 30 µM (not active) | 
COC(=O)Cc1c(OC)ccn(CCc2c[nH]c3ccccc23)c1=O |  |  | EC50 [6]: > 120 µM (not active)
O=C(CSc1cccc[n+]1[O-])c1cc2ccccc2o1 | 11.3 µM (active) | > 60 µM (not active) | 
CCC(C)C(=O)N1CCCC(c2nc(-c3cccs3)no2)C1 (stereo not given) |  |  | EC50 [4]: > 120 µM (not active); EC50 [6]: 71.6 µM (active)
OC(COCC1COc2ccccc2O1)CN1CCc2ccccc2C1 (stereo not given) |  |  | AC50 [5]: 17.8 µM (inconclusive)
Cc1[nH]c2ccccc2c1C(=O)CSc1nc2ccccc2c(=O)n1CCCN1CCOCC1 |  |  | EC50 [4]: > 120 µM (not active); EC50 [6]: > 120 µM (not active)
CN(C)/C=N/c1cnc(C(=O)c2ccc(Cl)cc2)n1C |  |  | EC50 [6]: 0.52 µM (active)
